Where two headings read alike, the source gives them in different places.
System: HeLa S3 cells
Test: HeLa S3 Cell Growth Inhibition Test
Assay type: cell-based
Details: 72 hours incubation, Neutral Red
Protocol: In each well of a 96-well microtiter plate was placed 0.1 mL of HeLa S3 cells having a concentration of 8×10^3 cells/mL and prepared in an MEM culture medium containing 10% fetal bovine serum and 2 mM glutamine. After the cells were incubated overnight at 37° C. in a carbon dioxide incubator, a test compound suitably diluted with a medium was added to the wells in an amount of 0.05 mL for each well. The cells were incubated at 37° C. for 72 hours in a carbon dioxide incubator. After the culture supernatant was removed, 0.1 mL of a culture medium containing 0.02% Neutral Red was added to each well. The cells were then incubated at 37° C. for 1 hour in a carbon dioxide incubator to dye the cells. After the culture supernatant was removed, each residue was rinsed once with physiological saline and the pigment was extracted with 0.001 N hydrochloric acid/30% ethanol. The absorbance at 550 nm of each extract was measured with a microplate reader. The drug concentration required for the 50% inhibition of cell growth, which is referred to as IC50, was calculated by comparing the absorbance for untreated cells with those for cells treated with the drug in known concentrations.

[1] = Homo sapiens, HeLa S3, 72 h, HeLa S3, read-out: IC50, HeLa S3 cell growth inhibition
[2] = Homo sapiens, HeLa S3, 72 h, read-out: IC50, HeLa S3 cell growth inhibition, HeLa S3
[3] = HeLa S3, read-out: IC50, HeLa S3 cell growth inhibition
[4] = Homo sapiens, HeLa S3, read-out: IC50, HeLa S3 cell growth inhibition

Row | Structure (SMILES) | IC50 [1] [nM] | IC50 [2] [nM] | also measured
1 | CCC/C=C(\CSC(=O)C(C)(O)C12CC/C(C)=C/C(OC3(OC)CCOCC3)C(=O)/C=C/C=C\c3csc(n3)C(C)N(C(=O)C1)[S+]2[O-])C(=O)OC (stereo not shown) [Compound 119] | 870 |  | 
2 | C/C1=C\C(OC2CCCCO2)C(=O)/C=C/C=C\c2csc(n2)C(C)N2C(=O)CC(C(C)(O)C(=O)SCc3oc(=O)oc3COC(=O)CCC(=O)O)(CC1)[S+]2[O-] (stereo not shown) [Compound 95] |  | 27 | 
3 | COC(=O)[C@H](CCC(=O)OCSC(=O)C(C)(O)C12CC/C(C)=C/C(O)C(=O)/C=C/C=C\c3csc(n3)C(C)N(C(=O)C1)[S+]2[O-])NC(=O)C(C)(CO)CO (stereo partly shown) [Compound 61] |  | 720 | 
4 | C/C1=C\C(OC2CCCCO2)C(=O)/C=C/C=C\c2csc(n2)C(C)N2C(=O)CC(C(C)(O)C(=O)SCc3oc(=O)oc3CCl)(CC1)[S+]2[O-] (stereo not shown) [Compound 74] |  | 19 | 
5 | COC(=O)[C@H](CCC(=O)OCSC(=O)C(C)(O)C12CC/C(C)=C/C(OC3CCCCO3)C(=O)/C=C/C=C\c3csc(n3)C(C)N(C(=O)C1)[S+]2[O-])NC(=O)[C@@]12O[C@@H](CO)[C@@H](O)[C@@H]1OC(C)(C)O2 (single isomer, unassigned) [Compound 65] |  |  | IC50 [3]: 3.1 nM
6 | C=C(CSC(=O)C(C)(O)C12CC/C(C)=C/C(O)C(=O)/C=C/C=C\c3csc(n3)C(C)N(C(=O)C1)[S+]2[O-])C(=O)O (stereo not shown) [Compound 115] | > 10000 |  | 
7 | C/C1=C\C(OC2CCCCO2)C(=O)/C=C/C=C\c2csc(n2)C(C)N2C(=O)CC(C(C)(O)C(=O)SCOC(=O)c3cccc(OP(=O)(O)O)c3)(CC1)[S+]2[O-] (stereo not shown) [Compound 73] |  |  | IC50 [4]: 1900 nM
8 | CC(=O)Oc1cccc(C(=O)OCSC(=O)C(C)(O)C23CCC(C)=CC(O)C(=O)C=CC=Cc4csc(n4)C(C)N(C(=O)C2)[S+]3[O-])c1 (stereo not shown) [Compound 31] |  | 6.2 | 
9 | CC[Si](CC)(CC)OCc1oc(=O)oc1CSC(=O)C(C)(O)C12CC/C(C)=C/C(OC3CCCCO3)C(=O)/C=C/C=C\c3csc(n3)C(C)N(C(=O)C1)[S+]2[O-] (stereo not shown) [Compound 76] |  |  | IC50 [4]: 260 nM
10 | C/C1=C\C(OC2CCCCO2)C(=O)/C=C/C=C\c2csc(n2)C(C)N2C(=O)CC(C(C)(O)C(=O)SCc3oc(=O)oc3COC(=O)CN(C)C)(CC1)[S+]2[O-] (stereo not shown) [Compound 92] |  | 2.7 | 
11 | COC1(OC2/C=C(\C)CCC3(C(C)(O)C(=O)SCOC(=O)CNC(=O)OC(C)(C)C)CC(=O)N(C(C)c4nc(cs4)/C=C\C=C\C2=O)[S+]3[O-])CCOCC1 (stereo not shown) [Compound 39] | 2.2 |  | 
12 | C/C1=C\C(O)C(=O)/C=C/C=C\c2csc(n2)C(C)N2C(=O)CC(C(C)(O)C(=O)SCc3oc(=O)oc3COC(=O)C(C)(C)NC(=O)OC(C)(C)C)(CC1)[S+]2[O-] (stereo not shown) [Compound 96] |  | 29 | 
13 | C/C1=C\C(OC2CCCCO2)C(=O)/C=C/C=C\c2csc(n2)C(C)N2C(=O)CC(C(C)(O)C(=O)SCc3oc(=O)oc3COC(=O)N3CCN(C)CC3)(CC1)[S+]2[O-] (stereo not shown) [Compound 109] |  | 52 | 
14 | COC1(OC2/C=C(\C)CCC3(C(C)(O)C(=O)SCOC(=O)c4cccc(OC(C)=O)c4)CC(=O)N(C(C)c4nc(cs4)/C=C\C=C\C2=O)[S+]3[O-])CCOCC1 (stereo not shown) [Compound 55] | 11 |  | 
15 | CCC/C=C(\CSC(=O)C(C)(O)C12CC/C(C)=C/C(O)C(=O)/C=C/C=C\c3csc(n3)C(C)N(C(=O)C1)[S+]2[O-])C(=O)OC (stereo not shown) [Compound 118] |  | 580 | 
16 | CC1=C(CSC(=O)C(C)(O)C23CC/C(C)=C/C(O)C(=O)/C=C/C=C\c4csc(n4)C(C)N(C(=O)C2)[S+]3[O-])C(=O)OC2(CCOCC2)O1 (stereo not shown) [Compound 124] | 960 |  | 
17 | COC(=O)NCC(=O)OCSC(=O)C(C)(O)C12CC/C(C)=C/C(OC3CCCCO3)C(=O)/C=C/C=C\c3csc(n3)C(C)N(C(=O)C1)[S+]2[O-] (single isomer, unassigned) [Compound 42] |  |  | IC50 [3]: 47 nM
18 | CC1=CC(O)C(=O)C=CC=Cc2csc(n2)C(C)N2C(=O)CC(C(C)(O)C(=O)SCOC(=O)c3ccccc3)(CC1)[S+]2[O-] (stereo not shown) [Compound 6] |  | 18 | 
19 | CC1=CC(O)C(=O)C=CC=Cc2csc(n2)C(C)N2C(=O)CC(C(C)(O)C(=O)SCOC(=O)CNC(=O)[C@@]34O[C@H]5COC(C)(C)O[C@H]5[C@@H]3OC(C)(C)O4)(CC1)[S+]2[O-] (stereo partly shown) [Compound 19] | 57 |  | 
20 | C=C(CSC(=O)C(C)(O)C12CC/C(C)=C/C(OC3(OC)CCOCC3)C(=O)/C=C/C=C\c3csc(n3)C(C)N(C(=O)C1)[S+]2[O-])C(=O)O (stereo not shown) [Compound 116] | 8500 |  | 
21 | COC(=O)/C(=C/c1ccccc1)CSC(=O)C(C)(O)C12CC/C(C)=C/C(O)C(=O)/C=C/C=C\c3csc(n3)C(C)N(C(=O)C1)[S+]2[O-] (stereo not shown) [Compound 120] |  | 270 | 
22 | C/C1=C\C(O)C(=O)/C=C/C=C\c2csc(n2)C(C)N2C(=O)CC(C(C)(O)C(=O)SCOC(=O)c3ccc(O)cc3)(CC1)[S+]2[O-] (stereo not shown) [Compound 67] |  | 50 | 

Row | Structure (SMILES) | IC50 [1] [nM] | IC50 [2] [nM] | also measured
23 | C/C1=C\C(OC2CCCCO2)C(=O)/C=C/C=C\c2csc(n2)C(C)N2C(=O)CC(C(C)(O)C(=O)SCOC(=O)CCNC(=O)[C@@]34O[C@H]5COC(C)(C)O[C@H]5[C@@H]3OC(C)(C)O4)(CC1)[S+]2[O-] (stereo partly shown) [Compound 44] |  | 8.6 | 
24 | CC(=O)NCC(=O)OCc1oc(=O)oc1CSC(=O)C(C)(O)C12CC/C(C)=C/C(O)C(=O)/C=C/C=C\c3csc(n3)C(C)N(C(=O)C1)[S+]2[O-] (stereo not shown) [Compound 97] | 120 |  | 
25 | COC(=O)[C@H](CCC(=O)OCSC(=O)C(C)(O)C12CC/C(C)=C/C(OC3CCCCO3)C(=O)/C=C/C=C\c3csc(n3)C(C)N(C(=O)C1)[S+]2[O-])NC(=O)c1ccc(O)cc1 (stereo partly shown) [Compound 71] |  | 1.2 | 
26 | C=C(CSC(=O)C(C)(O)C12CC/C(C)=C/C(O)C(=O)/C=C/C=C\c3csc(n3)C(C)N(C(=O)C1)[S+]2[O-])C(=O)N1CCCCC1 (stereo not shown) [Compound 117] |  | 2100 | 
27 | CC(=O)OCc1oc(=O)oc1CSC(=O)C(C)(O)C12CC/C(C)=C/C(OC3CCCCO3)C(=O)/C=C/C=C\c3csc(n3)C(C)N(C(=O)C1)[S+]2[O-] (stereo not shown) [Compound 91] | 51 |  | 
28 | CC1=CC(O)C(=O)C=CC=Cc2csc(n2)C(C)N2C(=O)CC(C(C)(O)C(=O)SCOC(=O)C(C)(C)NC(=O)OC(C)(C)C)(CC1)[S+]2[O-] (stereo not shown) [Compound 5] |  | 55 | 
29 | C=C(CSC(=O)C(C)(O)C12CC/C(C)=C/C(O)C(=O)/C=C/C=C\c3csc(n3)C(C)N(C(=O)C1)[S+]2[O-])C(=O)OC (stereo not shown) [Compound 111] |  | 20 | 
30 | CC(=O)Oc1ccc(C(=O)OCSC(=O)C(C)(O)C23CCC(C)=CC(O)C(=O)C=CC=Cc4csc(n4)C(C)N(C(=O)C2)[S+]3[O-])cc1 (stereo not shown) [Compound 30] | 15 |  | 
31 | CC[Si](CC)(CC)OC[C@H]1OC(OCc2oc(=O)oc2CSC(=O)C(C)(O)C23CC/C(C)=C/C(O)C(=O)/C=C/C=C\c4csc(n4)C(C)N(C(=O)C2)[S+]3[O-])C[C@@H](O[Si](CC)(CC)CC)[C@@H]1O[Si](CC)(CC)CC (stereo partly shown) [Compound 81] |  |  | IC50 [4]: 210 nM
32 | COC(=O)OCc1oc(=O)oc1CSC(=O)C(C)(O)C12CC/C(C)=C/C(OC3CCCCO3)C(=O)/C=C/C=C\c3csc(n3)C(C)N(C(=O)C1)[S+]2[O-] (stereo not shown) [Compound 106] | 11 |  | 
33 | CC(=O)Oc1ccc(CCCC(=O)OCSC(=O)C(C)(O)C23CCC(C)=CC(O)C(=O)C=CC=Cc4csc(n4)C(C)N(C(=O)C2)[S+]3[O-])cc1 (stereo not shown) [Compound 33] | 11 |  | 
34 | COC(=O)Nc1cccc(C(=O)OCSC(=O)C(C)(O)C23CC/C(C)=C/C(OC4(OC)CCOCC4)C(=O)/C=C/C=C\c4csc(n4)C(C)N(C(=O)C2)[S+]3[O-])c1 (stereo not shown) [Compound 58] |  | 38 | 
35 | COCCOCCOCCOCC(=O)OCc1oc(=O)oc1CSC(=O)C(C)(O)C12CC/C(C)=C/C(OC3CCCCO3)C(=O)/C=C/C=C\c3csc(n3)C(C)N(C(=O)C1)[S+]2[O-] (stereo not shown) [Compound 104] | 20 |  | 
36 | C/C1=C\C(OC2CCCCO2)C(=O)/C=C/C=C\c2csc(n2)C(C)N2C(=O)CC(C(C)(O)C(=O)SCc3oc(=O)oc3COC(=O)NCCO)(CC1)[S+]2[O-] (stereo not shown) [Compound 110] |  | 22 | 
37 | CC1=CC(O)C(=O)C=CC=Cc2csc(n2)C(C)N2C(=O)CC(C(C)(O)C(=O)SCOC(=O)CCNC(=O)[C@@]34O[C@H]5COC(C)(C)O[C@H]5[C@@H]3OC(C)(C)O4)(CC1)[S+]2[O-] (stereo partly shown) [Compound 20] | 110 |  | 
38 | CCOC(=O)N1CCC2(CC1)OC(=O)C(CSC(=O)C(C)(O)C13CC/C(C)=C/C(O)C(=O)/C=C/C=C\c4csc(n4)C(C)N(C(=O)C1)[S+]3[O-])=C(C)O2 (stereo not shown) [Compound 126] |  |  | IC50 [4]: 5500 nM
39 | C/C1=C\C(OC2CCCCO2)C(=O)/C=C/C=C\c2csc(n2)C(C)N2C(=O)CC(C(C)(O)C(=O)SCOC(=O)CNC(=O)[C@@]34O[C@H]5COC(C)(C)O[C@H]5[C@@H]3OC(C)(C)O4)(CC1)[S+]2[O-] (stereo partly shown) [Compound 43] |  | 24 | 
40 | C/C1=C\C(OC2CCCCO2)C(=O)/C=C/C=C\c2csc(n2)C(C)N2C(=O)CC(C(C)(O)C(=O)SCc3oc(=O)oc3COC=O)(CC1)[S+]2[O-] (stereo not shown) [Compound 89] |  | 41 | 
41 | COC(=O)N[C@@H](CCC(=O)OCSC(=O)C(C)(O)C12CCC(C)=CC(O)C(=O)C=CC=Cc3csc(n3)C(C)N(C(=O)C1)[S+]2[O-])C(=O)OC (stereo partly shown) [Compound 23] |  | 58 | 
42 | C/C1=C\C(OC2CCCCO2)C(=O)/C=C/C=C\c2csc(n2)C(C)N2C(=O)CC(C(C)(O)C(=O)SCOC(=O)c3ccc(OP(=O)(O)O)cc3)(CC1)[S+]2[O-] (stereo not shown) [Compound 72] |  |  | IC50 [4]: 650 nM
43 | COC(=O)Nc1cccc(C(=O)OCSC(=O)C(C)(O)C23CC/C(C)=C/C(OC4CCCCO4)C(=O)/C=C/C=C\c4csc(n4)C(C)N(C(=O)C2)[S+]3[O-])c1 (stereo not shown) [Compound 57] |  | 36 | 

Reference: patent US5981558A, “DC107 derivatives” (Kyowa Hakko Kogyo Co., Ltd., priority 1996, dated 1999)
